The text below walks through data of patent US9290451B2 (Hoffmann-La Roche Inc., priority 2011, dated 2016).

Broadly, the EC50 is the concentration needed to bring the measured effect to its halfway point.

One assay has as its target human CB2 receptors (Homo sapiens (Human), UniProt P34972). Nature of the assay: cAMP assay, CHO cells expressing human CB2 receptors. It is filed as cell-based. Conditions: CHO cells expressing human CB2, cAMP; read-out: human CB2 EC50. As for the experimental part:
(§1) CHO cells expressing human CB1 or CB2 receptors are seeded 17-24 hours prior to the experiment 50.000 cells per well in a black 96 well plate with flat clear bottom (Corning Costar #3904) in DMEM (Invitrogen No. 31331), 1×HT supplement, with 10% fetal calf serum and incubated at 5% CO2 and 37° C. in a humidified incubator. The growth medium was exchanged with Krebs Ringer Bicarbonate buffer with 1 mM IBMX and incubated at 30° C. for 30 min Compounds were added to a final assay volume of 100 μl and incubated for 30 min at 30° C. Using the cAMP-Nano-TRF detection kit the assay (Roche Diagnostics) was stopped by the addition of 50 μl lysis reagent (Tris, NaCl, 1.5% Triton X100, 2.5% NP40, 10% NaN3) and 50 μl detection solutions (20 μM mAb Alexa700-cAMP 1:1, and 48 μM Ruthenium-2-AHA-cAMP) and shaken for 2 h at room temperature. The time-resolved energy transfer is measured by a TRF reader (Evotec Technologies GmbH), equipped with a ND:YAG laser as excitation source. The plate is measured twice with the excitation at 355 nm and at the emission with a delay of 100 ns and a gate of 100 ns, total exposure time 10 s at 730 (bandwidth 30 nm) or 645 nm (bandwidth 75 nm), respectively. The FRET signal is calculated as follows: FRET=T730-Alexa730-P(T645-B645) with P═Ru730-B730/Ru645-B645, where T730 is the test well measured at […], T645 is the test well measured at 645 nm, B730 and B645 are the buffer controls at 730 nm and 645 nm, respectively. cAMP content is determined from the function of a standard curve spanning from 10 μM to 0.13 nM cAMP.
(§2) EC50 values were determined using Activity Base analysis (ID Business Solution, Limited). The EC50 values for a wide range of cannabinoid agonists generated from this assay for reference compounds were in agreement with the values published in the scientific literature.

For the next assay, the target named is human CB1 receptors (Homo sapiens (Human), UniProt P21554). Description: cAMP assay, CHO cells expressing human CB1 receptors. It counts as cell-based. Conditions: CHO cells expressing human CB1, cAMP; read-out: human CB1 EC50. As for the experimental part:
as §1, §2

Sequence of human CB1 receptors (P21554 whole entry): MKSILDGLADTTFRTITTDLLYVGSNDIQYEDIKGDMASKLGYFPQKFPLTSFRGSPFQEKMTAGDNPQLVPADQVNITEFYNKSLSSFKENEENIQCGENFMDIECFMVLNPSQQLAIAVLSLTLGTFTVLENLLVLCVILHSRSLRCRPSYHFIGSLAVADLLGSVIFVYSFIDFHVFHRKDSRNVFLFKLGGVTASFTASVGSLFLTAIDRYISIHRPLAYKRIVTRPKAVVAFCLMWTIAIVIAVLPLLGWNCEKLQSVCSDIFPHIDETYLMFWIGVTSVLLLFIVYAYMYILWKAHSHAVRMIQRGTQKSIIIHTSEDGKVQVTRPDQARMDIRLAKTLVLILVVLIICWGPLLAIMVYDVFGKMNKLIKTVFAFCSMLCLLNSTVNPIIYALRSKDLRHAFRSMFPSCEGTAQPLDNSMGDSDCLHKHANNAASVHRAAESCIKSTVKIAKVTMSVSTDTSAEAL
Sequence of human CB2 receptors (P34972 whole entry): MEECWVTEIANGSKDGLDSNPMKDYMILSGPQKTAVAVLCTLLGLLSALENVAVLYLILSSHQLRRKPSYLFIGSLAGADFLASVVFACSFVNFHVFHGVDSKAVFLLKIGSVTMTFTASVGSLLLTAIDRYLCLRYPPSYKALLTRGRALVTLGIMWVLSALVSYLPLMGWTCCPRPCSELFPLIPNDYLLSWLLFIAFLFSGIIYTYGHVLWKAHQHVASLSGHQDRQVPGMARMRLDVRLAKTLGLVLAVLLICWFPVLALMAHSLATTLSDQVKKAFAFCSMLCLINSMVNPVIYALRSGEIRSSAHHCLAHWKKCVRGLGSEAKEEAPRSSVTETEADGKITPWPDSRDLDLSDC

Take `CCC(CC)(CO)NC(=O)c1cccc(-c2cccc(Cl)c2)n1` [Example 29, 6-(3-Chloro-phenyl)-pyridine-2-carboxylic acid (1-ethyl-1-hydroxymethyl-propyl)-amide]: the EC50 at human CB2 receptors is 0.324 µM; at human CB1 receptors, over 10 µM.
Regarding `O=C(NC1CCCOC1)c1cccc(-c2cccc(Cl)c2)n1` (centres unmarked) [Example 30, 6-(3-Chloro-phenyl)-pyridine-2-carboxylic acid (tetrahydro-pyran-3-yl)-amide], the EC50 on human CB2 receptors was 0.658 µM; on human CB1 receptors, over 10 µM.
For `O=C(c1ccc(N2CCCC2)c(OCC2CC2)n1)N1CC2(COC2)C1` [Example 31, (6-Cyclopropylmethoxy-5-pyrrolidin-1-yl-pyridin-2-yl)-(2-oxa-6-aza-spiro[3.3]hept-6-yl)-methanone], the concentration for a half-maximal effect (EC50) on human CB2 receptors is 0.423 µM; at human CB1 receptors, over 10 µM.
The matching figures for `CC(C)C[C@H](NC(=O)c1ccc(N2CCCC2C)c(OCC2CC2)n1)C(N)=O` (stereo partly drawn) [Example 32, 6-Cyclopropylmethoxy-5-(2-methyl-pyrrolidin-1-yl)-pyridine-2-carboxylic acid ((S)-1-carbamoyl-3-methyl-butyl)-amide]: 0.00155 µM and 1.39 µM.
The matching figures for `Cc1nc(C(C)(C)NC(=O)c2ccc(N3CCCC3)c(OCC3CC3)n2)no1` [Example 33, 6-Cyclopropylmethoxy-5-pyrrolidin-1-yl-pyridine-2-carboxylic acid [1-methyl-1-(5-methyl-[1,2,4]oxadiazol-3-yl)-ethyl]-amide]: 0.0231 µM and over 10 µM.
On to `CC(C)(NC(=O)c1ccc(C2CCOCC2)c(OCC2CC2)n1)c1nccs1` [Example 34, 6-Cyclopropylmethoxy-5-(tetrahydro-pyran-4-yl)-pyridine-2-carboxylic acid (1-methyl-1-thiazol-2-yl-ethyl)-amide], for which the figures for the half-maximal effective concentration (EC50) at human CB2 receptors and on human CB1 receptors were 0.0537 µM and over 10 µM, respectively.
The corresponding values for `CC(C)(CCN1CCOCC1)NC(=O)c1ccc(N2CCCC2)c(OCC2CC2)n1` [Example 35, 6-Cyclopropylmethoxy-5-pyrrolidin-1-yl-pyridine-2-carboxylic acid (1,1-dimethyl-3-morpholin-4-yl-propyl)-amide] are 0.0071 µM and over 10 µM.
The corresponding values for `CNC(=O)C(C)(C)NC(=O)c1ccc(C)c(OCC2CC2)n1` [Example 36, 6-Cyclopropylmethoxy-5-methyl-pyridine-2-carboxylic acid (1-methyl-1-methylcarbamoyl-ethyl)-amide] are 0.974 µM and over 10 µM.
Turning to `O=C(NN1CCCCC1)c1cccc(C2CCOCC2)n1` [Example 37, 6-(Tetrahydro-pyran-4-yl)-pyridine-2-carboxylic acid piperidin-1-ylamide], the EC50 was 0.625 µM on human CB2 receptors and over 10 µM on human CB1 receptors.
As to `Cc1nc([C@H](CC2CC2)NC(=O)c2cccc(-c3cccc(Cl)c3)n2)no1` [Example 38], the half-maximal effective concentration (EC50) on human CB2 receptors was 0.0997 µM; at human CB1 receptors, over 10 µM.
The matching figures for `CNC(=O)C(C)(C)NC(=O)c1ccc(C2CCCC2)c(OCC2CC2)n1` [Example 40, 5-Cyclopentyl-6-cyclopropylmethoxy-pyridine-2-carboxylic acid (1-methyl-1-methylcarbamoyl-ethyl)-amide]: 0.0308 µM and over 10 µM.
The corresponding values for `Cc1nc(C(C)(C)NC(=O)c2cccc(-c3cccc(Cl)c3)n2)no1` [Example 41, 6-(3-Chloro-phenyl)-pyridine-2-carboxylic acid [1-methyl-1-(5-methyl-[1,2,4]oxadiazol-3-yl)-ethyl]-amide] are 0.0999 µM and over 10 µM.
For the compound `O=C(NN1CCCCC1)c1ccc(C2CC2)c(OCC2CC2)n1` [Example 42, 5-Cyclopropyl-6-cyclopropylmethoxy-pyridine-2-carboxylic acid piperidin-1-ylamide], the concentration for a half-maximal effect (EC50) at human CB2 receptors was 1.48 µM; on human CB1 receptors, over 10 µM.
